Holding throughout (experiment): AK assay 384-well format, Prestwick library screening
In assay [1] the test system is A. baumannii strain 98-37-09. The assay is classed as cell-based, Acinetobacter baumannii. Particulars: 50 μM final drug concentration; for fold induction at 50 µM: Acinetobacter baumannii, 983709, 3 h.
The test system of assay [2] is S. aureus strain USA300-0114. The assay is classed as cell-based, Staphylococcus aureus. Particulars: 50 μM final drug concentration; for fold induction at 50 µM: Staphylococcus aureus, USA300, 3 h.
Another assay relates to E. faecium. The assay is classed as cell-based, Enterococcus faecium. Particulars: 50 μM final drug concentration; for fold induction at 50 µM: Enterococcus faecium, 3 h.
A further assay deals with E. coli. The assay is classed as cell-based, Escherichia coli. The conditions noted are these: 50 μM final drug concentration; for fold induction at 50 µM: Escherichia coli, 3 h.
The test system of another assay is P. aeruginosa. It counts as cell-based, Pseudomonas aeruginosa. Particulars: 50 μM final drug concentration; for fold induction at 50 µM: Pseudomonas aeruginosa, 3 h.
The test system of another assay is K. pneumoniae. The assay is classed as cell-based, Klebsiella pneumoniae. The conditions noted are these: 50 μM final drug concentration; for fold induction at 50 µM: Klebsiella pneumoniae, 3 h.
For another assay, the system named is E. cloacae. It counts as cell-based, Enterobacter cloacae. Particulars: 50 μM final drug concentration; for fold induction at 50 µM: Enterobacter cloacae, 3 h.
Where [3] appears, read: planktonic, cutoff for positive 3-fold increase, read-out: AK-based Prestwick Library Screening Results, A. baumannii (fold increase in extracellular AK activity).
Where [4] appears, read: planktonic, cutoff for positive 3-fold increase, read-out: AK-based Prestwick Library Screening Results, S. aureus (fold increase in extracellular AK activity).
Setting [5] is: planktonic, cutoff for positive 3-fold increase, read-out: AK-based Prestwick Library Screening Results, E. faecium (fold increase in extracellular AK activity).
[6] abbreviates: planktonic, cutoff for positive 3-fold increase, read-out: AK-based Prestwick Library Screening Results, E. coli (fold increase in extracellular AK activity).
Setting [7] is: planktonic, cutoff for positive 3-fold increase, read-out: AK-based Prestwick Library Screening Results, P. aeruginosa (fold increase in extracellular AK activity).
Setting [8] is: planktonic, cutoff for positive 3-fold increase, read-out: AK-based Prestwick Library Screening Results, K. pneumoniae (fold increase in extracellular AK activity).
The mark [9] stands for this setting: planktonic, cutoff for positive 3-fold increase, read-out: AK-based Prestwick Library Screening Results, E. cloacae (fold increase in extracellular AK activity).

The structures appear in SMILES notation. Counter-ions that a name gives are not always drawn. Like-named read-outs stand apart in the source and are kept apart here.

With `COc1ccccc1N1CCN(CC(O)COc2cccc3ccccc23)CC1` (stereo not drawn) [Naftopidil dihydrochloride], the fold induction at 50 µM is 0.7 in assay [1] (cutoff for positive-scoring molecules 3-fold increase, read-out: AK-based Prestwick Library Screening Results, A. baumannii (fold increase in extracellular AK activity)); 0.5 in assay [2] (cutoff for positive-scoring molecules 3-fold increase, read-out: AK-based Prestwick Library Screening Results, S. aureus (fold increase in extracellular AK activity)); 0.8 in the assay with E. faecium (cutoff for positive-scoring molecules 3-fold increase, read-out: AK-based Prestwick Library Screening Results, E. faecium (fold increase in extracellular AK activity)); 0.9 with E. coli (cutoff for positive-scoring molecules 3-fold increase, read-out: AK-based Prestwick Library Screening Results, E. coli (fold increase in extracellular AK activity)); 0.7 in the assay on P. aeruginosa (cutoff for positive-scoring molecules 3-fold increase, read-out: AK-based Prestwick Library Screening Results, P. aeruginosa (fold increase in extracellular AK activity)); 0.6 with K. pneumoniae (cutoff for positive-scoring molecules 3-fold increase, read-out: AK-based Prestwick Library Screening Results, K. pneumoniae (fold increase in extracellular AK activity)). Further, in the assay with E. cloacae (cutoff for positive-scoring molecules 3-fold increase, read-out: AK-based Prestwick Library Screening Results, E. cloacae (fold increase in extracellular AK activity)), the fold induction at 50 µM amounted to 0.9.

With `CN1C(=O)CC(c2ccccc2)C1=O` (stereo not drawn) [Phensuximide], the fold induction at 50 µM amounted to 0.8 in assay [1] (planktonic A. baumannii, […], read-out: AK-based Prestwick library screening result, A. baumannii (fold increase in extracellular AK activity)); 0.7 in assay [2] (planktonic S. aureus, […], read-out: AK-based Prestwick library screening result, S. aureus (fold increase in extracellular AK activity)); 0.9 with E. faecium (planktonic E. faecium, […], read-out: AK-based Prestwick library screening result, E. faecium (fold increase in extracellular AK activity)); 1 in the assay with E. coli (planktonic E. coli, […], read-out: AK-based Prestwick library screening result, E. coli (fold increase in extracellular AK activity)); 0.7 with P. aeruginosa (planktonic P. aeruginosa, […], read-out: AK-based Prestwick library screening result, P. aeruginosa (fold increase in extracellular AK activity)); 0.8 with K. pneumoniae (planktonic K. pneumoniae, […], read-out: AK-based Prestwick library screening result, K. pneumoniae (fold increase in extracellular AK activity)). The fold induction at 50 µM in the assay with E. cloacae (planktonic E. cloacae, […], read-out: AK-based Prestwick library screening result, E. cloacae (fold increase in extracellular AK activity)) worked out at 1.1.

`CC[N+](C)(C)c1cccc(O)c1` [Edrophonium chloride]: the fold induction at 50 µM in assay [1] (384-well format, […], read-out: AK-based Prestwick Library Screening Results, A. baumannii (increase in extracellular AK activity)) came out at 0.4; in assay [2] (384-well format, […], read-out: AK-based Prestwick Library Screening Results, S. aureus (increase in extracellular AK activity)), 0.4; with E. faecium (384-well format, […], read-out: AK-based Prestwick Library Screening Results, E. faecium (increase in extracellular AK activity)), 0.8; in the assay on E. coli (384-well format, […], read-out: AK-based Prestwick Library Screening Results, E. coli (increase in extracellular AK activity)), 0.4; with P. aeruginosa (384-well format, […], read-out: AK-based Prestwick Library Screening Results, P. aeruginosa (increase in extracellular AK activity)), 0.4; with K. pneumoniae (384-well format, […], read-out: AK-based Prestwick Library Screening Results, K. pneumoniae (increase in extracellular AK activity)), 0.5. In the assay on E. cloacae (384-well format, […], read-out: AK-based Prestwick Library Screening Results, E. cloacae (increase in extracellular AK activity)), the fold induction at 50 µM was 0.3.

`Cc1cccc(C)c1NC(=O)CN1CCN(CCCC(c2ccc(F)cc2)c2ccc(F)cc2)CC1` [Lidoflazine]: the fold induction at 50 µM is 2.9 in assay [1] (setting [3]); 1.4 in assay [2] (setting [4]); 1 with E. faecium (setting [5]); 1.4 in the assay with E. coli (setting [6]); 1.3 with P. aeruginosa (setting [7]); 1.1 with K. pneumoniae (setting [8]). Also, in the assay on E. cloacae (setting [9]), the fold induction at 50 µM was 1.4.

On to `COc1cc(N)c(Cl)cc1C(=O)NC1CCN(Cc2ccccc2)CC1` [Clebopride maleate], for which the fold induction at 50 µM turned out to be 1 in assay [1] (setting [3]); 1.2 in assay [2] (setting [4]); 1.1 in the assay on E. faecium (setting [5]); 1 in the assay with E. coli (setting [6]); 0.9 with P. aeruginosa (setting [7]); 1 in the assay with K. pneumoniae (setting [8]). For the same molecule, in the assay on E. cloacae (setting [9]), the fold induction at 50 µM stood at 1.6.

Turning to `CC1(C)S[C@@H]2[C@H](NC(=O)[C@H](N)c3ccccc3)C(=O)N2[C@H]1C(=O)O` [Ampicillin trihydrate], the fold induction at 50 µM in assay [1] (384-well format, cutoff for positive-scoring molecules 3-fold increase, read-out: AK-based Prestwick Library Screening Results, A. baumannii (increase in extracellular AK activity)) was found to be 1.6; in assay [2] (384-well format, cutoff for positive-scoring molecules 3-fold increase, read-out: AK-based Prestwick Library Screening Results, S. aureus (increase in extracellular AK activity)) it was 0.5; with E. faecium (384-well format, cutoff for positive-scoring molecules 3-fold increase, read-out: AK-based Prestwick Library Screening Results, E. faecium (increase in extracellular AK activity)), 1.1; with E. coli (384-well format, cutoff for positive-scoring molecules 3-fold increase, read-out: AK-based Prestwick Library Screening Results, E. coli (increase in extracellular AK activity)), 12.2; in the assay on P. aeruginosa (384-well format, cutoff for positive-scoring molecules 3-fold increase, read-out: AK-based Prestwick Library Screening Results, P. aeruginosa (increase in extracellular AK activity)) it was 0.7; with K. pneumoniae (384-well format, cutoff for positive-scoring molecules 3-fold increase, read-out: AK-based Prestwick Library Screening Results, K. pneumoniae (increase in extracellular AK activity)) it was 0.6. In the assay with E. cloacae (384-well format, cutoff for positive-scoring molecules 3-fold increase, read-out: AK-based Prestwick Library Screening Results, E. cloacae (increase in extracellular AK activity)), the fold induction at 50 µM was found to be 3.5.

In the case of `C[N+](C)(C)CCCCCC[N+](C)(C)C.O.O.[Br-].[Br-]` [Hexamethonium dibromide dihydrate], the “AK-based Prestwick Library Screening Results, A. baumannii (increase in extracellular AK activity)” value in assay [1] (384-well format, […]) is given as 0.9. Moreover, in assay [2] (384-well format, […]), the “AK-based Prestwick Library Screening Results, S. aureus (increase in extracellular AK activity)” value was determined as 0.7. Besides, the “AK-based Prestwick Library Screening Results, E. faecium (increase in extracellular AK activity)” value in the assay on E. faecium (384-well format, […]) is listed as 0.9. Besides, the “AK-based Prestwick Library Screening Results, E. coli (increase in extracellular AK activity)” value with E. coli (384-well format, […]) is 0.9. Moreover, the “AK-based Prestwick Library Screening Results, P. aeruginosa (increase in extracellular AK activity)” value in the assay on P. aeruginosa (384-well format, […]) is on record as 0.8. In addition, the “AK-based Prestwick Library Screening Results, K. pneumoniae (increase in extracellular AK activity)” value in the assay on K. pneumoniae (384-well format, […]) was 0.7. Also, in the assay on E. cloacae (384-well format, […]), the “AK-based Prestwick Library Screening Results, E. cloacae (increase in extracellular AK activity)” value was determined as 1.2.

For `COc1cc(OC)c(C(=O)CCCN2CCCC2)c(OC)c1` [Buflomedil hydrochloride], the fold induction at 50 µM in assay [1] (planktonic A. baumannii, cutoff for positive-scoring molecules 3-fold increase, read-out: AK-based Prestwick Library Screening Results, A. baumannii (increase in extracellular AK activity)) worked out at 0.7; in assay [2] (planktonic S. aureus, cutoff for positive-scoring molecules 3-fold increase, read-out: AK-based Prestwick Library Screening Results, S. aureus (increase in extracellular AK activity)), 0.6; in the assay on E. faecium (planktonic E. faecium, cutoff for positive-scoring molecules 3-fold increase, read-out: AK-based Prestwick Library Screening Results, E. faecium (increase in extracellular AK activity)) it was 0.8; in the assay with E. coli (planktonic E. coli, cutoff for positive-scoring molecules 3-fold increase, read-out: AK-based Prestwick Library Screening Results, E. coli (increase in extracellular AK activity)), 0.8; in the assay on P. aeruginosa (planktonic P. aeruginosa, cutoff for positive-scoring molecules 3-fold increase, read-out: AK-based Prestwick Library Screening Results, P. aeruginosa (increase in extracellular AK activity)) it was 0.8; with K. pneumoniae (planktonic K. pneumoniae, cutoff for positive-scoring molecules 3-fold increase, read-out: AK-based Prestwick Library Screening Results, K. pneumoniae (increase in extracellular AK activity)), 0.6. In addition, the fold induction at 50 µM in the assay with E. cloacae (planktonic E. cloacae, cutoff for positive-scoring molecules 3-fold increase, read-out: AK-based Prestwick Library Screening Results, E. cloacae (increase in extracellular AK activity)) was 0.9.

With `COc1c2c(cc3c1OCO3)CCN(C)C2` [Hydrocotarnine hydrobromide], the fold induction at 50 µM in assay [1] (setting [3]) was found to be 1.3; in assay [2] (setting [4]), 1; in the assay with E. faecium (setting [5]) it was 1; in the assay on E. coli (planktonic, […], read-out: AK-based Prestwick Library Screening Results, E. coli (fold increase in extracellular AK activity)), 1.2; in the assay with P. aeruginosa (setting [7]) it was 1.2; in the assay on K. pneumoniae (setting [8]), 0.9. Further, the fold induction at 50 µM in the assay on E. cloacae (setting [9]) was 1.4.

Values taken from patent publication US10004701B2, “Methods and compositions for treating infection” (UNIVERSITY OF ROCHESTER, priority 2012, dated 2018).
